Measurements: publication PMC11855827, “High-Throughput Screening of Five Compound Libraries for Anthelmintic Activity and Toxicity Leads to the Discovery of Two Flavonoid Compounds” (International Journal of Molecular Sciences, 2025)
Like-named read-outs stand apart in the source and are kept apart here.

System: C. elegans
Assay: microbe, parasite or virus in culture
Settings: Caenorhabditis elegans
[1] = 0 h, read-out: Percentage of motility inhibition 0 h, Table S2, C. elegans SS assay, 110 μM, 0 h, averages of 4 data points
[2] = 24 h, read-out: Percentage of motility inhibition 24 h, Table S2, C. elegans SS assay, 110 μM, 24 h, averages of 4 data points
[3] = 0 h, read-out: Percentage of motility inhibition 0 h
[4] = 24 h, read-out: Percentage of motility inhibition 24 h

SMILES	inhibition at 110 µM [1]	inhibition at 110 µM [2]	inhibition at 110 µM [3]	inhibition at 110 µM [4]
CNC1CCCN(c2c(F)cc3c(=O)c(C(=O)O)cn(C4CC4)c3c2OC)C1 (centres unmarked) [Balofloxacin]	0%	20%	–	–
COC(=O)C1=CO[C@@H](O[C@@H]2O[C@H](CO)[C@@H](O)[C@H](O)[C@H]2O)[C@H]2[C@@H]1[C@H](O)C[C@]2(C)OC(C)=O [Barlerin]	12%	26%	–	–
CC(C)=CCc1cc2c(cc1O)O[C@H](c1ccc(O)cc1)CC2=O [Bavachin]	27%	24%	–	–
NC[C@H]1O[C@H](O[C@H]2[C@H](O)[C@@H](O[C@H]3O[C@H](CO)[C@@H](O)[C@H](N)[C@H]3O)[C@H](N)C[C@@H]2N)[C@H](N)[C@@H](O)[C@@H]1O [Bekanamycin]	23%	10%	–	–
O=C(O)c1ccccc1 [Benzoic acid]	–	–	3%	6%
C[C@@]12C[C@@]3(O)O[C@@H](O1)[C@]1(COC(=O)c4ccccc4)[C@H]3C[C@@]12O[C@@H]1O[C@H](COC(=O)c2ccccc2)[C@@H](O)[C@H](O)[C@H]1O [Benzoylpaeoniflorin]	10%	0%	–	–
OCc1ccccc1 [Benzyl alcohol]	2%	4%	–	–
O=C(OCc1ccccc1)c1ccccc1 [Benzyl benzoate]	35%	36%	–	–
COc1c(O)cc2c(c1O)[C@@H]1O[C@H](CO)[C@@H](O)[C@H](O)[C@H]1OC2=O [Bergenin]	21%	10%	–	–
C=C1CCC[C@]2(C)CC[C@@H](C(C)(C)O)C[C@@H]12 [Beta-Eudesmol]	0%	6%	–	–
C=C(C)[C@@H]1CC[C@]2(COC(C)=O)CC[C@]3(C)[C@H](CC[C@@H]4[C@@]5(C)CC[C@H](OC(C)=O)C(C)(C)[C@@H]5CC[C@]43C)[C@@H]12 [Betulin diacetate]	11%	0%	–	–
C=C(C)[C@@H]1CC[C@]2(CO)CC[C@]3(C)[C@H](CC[C@@H]4[C@@]5(C)CC[C@H](O)C(C)(C)[C@@H]5CC[C@]43C)[C@@H]12 [Betulin]	0%	0%	–	–
C=C(C)[C@@H]1CC[C@]2(C(=O)O)CC[C@]3(C)[C@H](CC[C@@H]4[C@@]5(C)CC[C@H](OC(=O)CC(C)(C)C(=O)O)C(C)(C)[C@@H]5CC[C@]43C)[C@@H]12 [Bevirimat]	3%	30%	–	–
C[C@@H](O)[C@H]1C(=O)N2C(C(=O)[O-])=C(SC3Cn4cnc[n+]4C3)[C@H](C)[C@H]12 (some centres unmarked) [Biapenem]	18%	3%	–	–
CN1CCc2cc3c(cc2[C@H]1[C@@H]1OC(=O)c2c1ccc1c2OCO1)OCO3 [Bicuculline]	0%	8%	–	–
COC(=O)c1cc(OC)c2c(c1-c1c(CO)cc(OC)c3c1OCO3)OCO2 [Bicyclol]	23%	4%	–	–
c1ccc(-c2ccc(C(c3ccccc3)n3ccnc3)cc2)cc1 (centres unmarked) [Bifonazole]	25%	31%	–	–
CC(C)(C)[C@]1(O)CC2OC(=O)CC23C(=O)OC2OC(=O)[C@H](O)C231 (some centres unmarked) [Bilobalide]	0%	23%	–	–
O=C(O)CCCC[C@@H]1SC[C@@H]2NC(=O)N[C@@H]21 [Biotin]	–	–	14%	12%
CC(C)=C/C=C1\O[C@@H]2CC(C)=CC(=O)[C@@H]2[C@]1(C)O [Bisabolangelone]	18%	13%	–	–

SMILES	inhibition at 110 µM [1]	inhibition at 110 µM [2]	inhibition at 110 µM [3]	inhibition at 110 µM [4]
Oc1c(Cl)cc(Cl)cc1Sc1cc(Cl)cc(Cl)c1O [Bithionol]	40%	40%	–	–
CC(C)(C)NC(=O)N[C@H](C(=O)N1C[C@H]2[C@@H]([C@H]1C(=O)NC(CC1CCC1)C(=O)C(N)=O)C2(C)C)C(C)(C)C (some centres unmarked) [Boceprevir]	28%	39%	–	–
COc1cc2c(cc1O)C[C@H]1c3c(cc(O)c(OC)c3-2)CCN1C [Boldine]	0%	0%	–	–
O=C1N[C@@H](Cc2c[nH]c3ccccc23)C(=O)N2CCC[C@@H]12 [Brevianamide F]	–	–	31%	18%
C/C=C(/C)C(=O)O[C@H]1[C@@H]2[C@H](C)C(=O)O[C@@H]2C[C@@H](C)[C@@H]2C=CC(=O)[C@]21C [Brevilin A]	–	–	0%	0%
O=c1[nH]c(=O)n([C@H]2C[C@H](O)[C@@H](CO)O2)cc1/C=C/Br [Brivudine]	–	–	6%	14%
O=[N+]([O-])C(Br)(CO)CO [Bronopol]	19%	24%	–	–
Cc1ccc2c(Br)cc(Br)c(OC(=O)c3ccccc3)c2n1 [Broxaldine]	26%	0%	–	–
Oc1c(Br)cc(Br)c2cccnc12 [Broxyquinoline]	0%	8%	–	–
COC(=O)[C@@]12OC[C@]34[C@H]([C@@H](O)[C@@H]1O)[C@@]1(C)CC(=O)C(O)=C(C)[C@@H]1C[C@H]3OC(=O)[C@H](OC(=O)/C=C(\C)C(C)C)[C@@H]24 [Bruceantin]	24%	69%	–	–
COC(=O)[C@@]12OC[C@]34[C@H]([C@@H](O)[C@@H]1O)[C@@]1(C)CC(=O)C(O)=C(C)[C@@H]1C[C@H]3OC(=O)[C@H](OC(=O)CC(C)C)[C@@H]24 [Bruceine A]	–	–	24%	49%
C[C@H](CC[C@@H](O)C(C)(C)O)[C@H]1CC[C@@]2(C)[C@@H]3CC=C4[C@@H](CC[C@H](O)C4(C)C)[C@]3(C)C(=O)C[C@]12C [Bryodulcosigenin]	16%	15%	–	–
CC(C)(C)[C@H]1CC[C@H](CC2=C(O)C(=O)c3ccccc3C2=O)CC1 [Buparvaquone]	6%	12%	–	–
CO[C@H]1C(=O)[C@]2(C)[C@@H](OC)C[C@H]3OC[C@@]3(OC(C)=O)[C@H]2[C@H](OC(=O)c2ccccc2)[C@]2(O)C[C@H](OC(=O)[C@H](O)[C@@H](NC(=O)OC(C)(C)C)c3ccccc3)C(C)=C1C2(C)C [Cabazitaxel]	3%	9%	–	–
C[C@H]1CO[C@@H]2Cn3cc(C(=O)NCc4ccc(F)cc4F)c(=O)c(O)c3C(=O)N12 [Cabotegravir]	19%	7%	–	–
O=C(O)c1cn(C2CC2)c2cc(N3CCC(O)(COc4ccc(N5C[C@H](CO)OC5=O)cc4F)CC3)c(F)cc2c1=O [Cadazolid]	5%	31%	–	–
O=C(O)/C=C/c1ccc(O)c(O)c1 [Caffeic acid]	20%	13%	–	–
COc1ccc(-c2coc3cc(O)ccc3c2=O)cc1O [Calycosin]	–	–	16%	1%
C[C@@H]1O[C@@H](OC[C@H]2O[C@@H](Oc3c(-c4ccc(O)cc4)oc4cc(O)cc(O)c4c3=O)[C@H](O[C@@H]3O[C@H](CO)[C@H](O)[C@H](O)[C@H]3O)[C@@H](O)[C@@H]2O)[C@H](O)[C@H](O)[C@H]1O [Camelliaside A]	9%	10%	–	–
O=c1ccc2nccc3c4ccccc4n1c23 [Canthin‐6‐one]	0%	15%	–	–
